We go through 13 molecules from ChEMBL document CHEMBL5291721, “A preclinical secondary pharmacology resource illuminates target-adverse drug reaction associations of marketed drugs” (Nat Commun, 2023).

Some targets named below: Vasopressin V1a receptor (Homo sapiens, UniProt P37288); Melanocortin receptor 4 (Homo sapiens, UniProt P32245); D(3) dopamine receptor (Homo sapiens, UniProt P35462).
The target in test [1] is T1, Type-1 angiotensin II receptor (Homo sapiens, UniProt P30556).
T1 sequence (P30556 whole entry): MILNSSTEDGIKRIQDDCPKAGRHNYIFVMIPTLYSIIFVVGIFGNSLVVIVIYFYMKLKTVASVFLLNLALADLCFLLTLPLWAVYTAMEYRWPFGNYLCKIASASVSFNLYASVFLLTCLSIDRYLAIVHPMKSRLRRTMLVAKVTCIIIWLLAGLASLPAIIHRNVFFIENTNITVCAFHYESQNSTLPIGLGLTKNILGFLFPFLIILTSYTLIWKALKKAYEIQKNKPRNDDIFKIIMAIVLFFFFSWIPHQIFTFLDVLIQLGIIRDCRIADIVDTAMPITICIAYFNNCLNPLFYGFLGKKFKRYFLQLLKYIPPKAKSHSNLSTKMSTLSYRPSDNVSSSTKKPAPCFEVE

Test [2] has as its target Neuronal acetylcholine receptor subunit alpha-4 (Homo sapiens, UniProt P43681).
The target of a further test is D(1A) dopamine receptor (Homo sapiens, UniProt P21728). Type of test: functional, cell-based.
Chain of D(1A) dopamine receptor (P21728 whole entry): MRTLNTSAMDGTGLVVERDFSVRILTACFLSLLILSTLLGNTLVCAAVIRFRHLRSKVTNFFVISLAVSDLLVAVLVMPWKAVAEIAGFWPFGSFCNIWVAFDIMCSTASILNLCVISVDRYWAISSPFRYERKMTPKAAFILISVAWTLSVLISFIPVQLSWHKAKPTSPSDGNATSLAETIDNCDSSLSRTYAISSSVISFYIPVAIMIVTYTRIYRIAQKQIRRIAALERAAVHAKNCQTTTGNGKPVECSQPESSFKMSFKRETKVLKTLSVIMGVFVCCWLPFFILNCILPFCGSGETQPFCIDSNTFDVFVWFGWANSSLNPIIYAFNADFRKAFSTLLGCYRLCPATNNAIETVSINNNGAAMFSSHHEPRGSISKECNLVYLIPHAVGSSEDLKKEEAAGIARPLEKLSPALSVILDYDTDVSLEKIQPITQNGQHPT
Test [3] concerns the target Growth hormone secretagogue receptor type 1 (Homo sapiens, UniProt Q92847).
Test [4] addresses T2, Neuropeptide Y receptor type 1 (Homo sapiens, UniProt P25929).
T2 sequence (P25929 whole entry): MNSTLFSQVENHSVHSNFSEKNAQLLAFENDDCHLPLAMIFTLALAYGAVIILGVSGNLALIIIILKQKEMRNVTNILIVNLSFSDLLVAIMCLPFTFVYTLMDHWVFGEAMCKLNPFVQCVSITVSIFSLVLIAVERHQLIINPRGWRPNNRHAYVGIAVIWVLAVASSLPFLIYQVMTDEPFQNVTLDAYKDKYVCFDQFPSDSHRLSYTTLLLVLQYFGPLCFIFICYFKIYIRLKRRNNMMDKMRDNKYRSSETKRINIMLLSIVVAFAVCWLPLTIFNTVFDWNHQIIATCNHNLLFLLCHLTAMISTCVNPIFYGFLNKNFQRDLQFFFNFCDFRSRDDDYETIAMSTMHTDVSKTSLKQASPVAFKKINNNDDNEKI

Test [5] has as its target T3, Prostaglandin G/H synthase 1 (Rattus norvegicus, UniProt Q63921).
T3 sequence (Q63921 whole entry): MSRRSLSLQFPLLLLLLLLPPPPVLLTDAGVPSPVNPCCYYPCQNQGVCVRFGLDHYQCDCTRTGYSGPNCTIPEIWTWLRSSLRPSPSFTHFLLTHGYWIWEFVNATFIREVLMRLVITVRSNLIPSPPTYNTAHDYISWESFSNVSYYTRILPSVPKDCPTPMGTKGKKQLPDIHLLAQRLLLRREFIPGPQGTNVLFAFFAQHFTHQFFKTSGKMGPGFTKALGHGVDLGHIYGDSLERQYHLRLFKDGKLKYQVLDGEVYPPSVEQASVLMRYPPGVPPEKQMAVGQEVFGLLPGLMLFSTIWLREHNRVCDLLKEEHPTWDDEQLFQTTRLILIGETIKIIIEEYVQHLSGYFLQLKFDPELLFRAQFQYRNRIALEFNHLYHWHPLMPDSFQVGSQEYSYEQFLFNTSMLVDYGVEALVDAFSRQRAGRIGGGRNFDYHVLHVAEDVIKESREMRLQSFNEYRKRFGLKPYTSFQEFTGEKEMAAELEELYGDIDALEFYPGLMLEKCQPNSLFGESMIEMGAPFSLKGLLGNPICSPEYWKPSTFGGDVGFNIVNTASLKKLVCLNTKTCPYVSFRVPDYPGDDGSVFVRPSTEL
Type of test: functional.

In test [6] the target is T4, Amine oxidase [flavin-containing] A (Homo sapiens, UniProt P21397).
T4 sequence (P21397 whole entry): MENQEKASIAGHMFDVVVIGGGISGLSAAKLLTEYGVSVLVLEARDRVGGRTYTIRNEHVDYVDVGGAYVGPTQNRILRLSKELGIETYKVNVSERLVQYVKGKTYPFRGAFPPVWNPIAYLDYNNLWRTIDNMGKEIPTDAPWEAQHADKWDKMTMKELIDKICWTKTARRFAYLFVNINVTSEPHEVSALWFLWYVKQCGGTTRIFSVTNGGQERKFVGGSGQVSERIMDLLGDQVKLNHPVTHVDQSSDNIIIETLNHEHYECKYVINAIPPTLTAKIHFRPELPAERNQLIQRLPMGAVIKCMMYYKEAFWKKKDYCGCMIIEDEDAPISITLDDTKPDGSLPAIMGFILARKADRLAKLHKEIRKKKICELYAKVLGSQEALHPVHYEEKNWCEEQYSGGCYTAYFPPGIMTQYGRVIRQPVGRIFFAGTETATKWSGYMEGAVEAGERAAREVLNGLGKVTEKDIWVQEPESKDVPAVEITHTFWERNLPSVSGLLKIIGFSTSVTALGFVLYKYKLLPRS
Type of test: functional.

Test [7] addresses cGMP-inhibited 3',5'-cyclic phosphodiesterase 3A (Homo sapiens, UniProt Q14432). Type of test: functional.

Each structure is given as a SMILES string.

For orientation: AC50 means the concentration at which the activity in the assay is half-maximal.
Also: assay procedure not described here.

Chain of Growth hormone secretagogue receptor type 1 (Q92847 whole entry): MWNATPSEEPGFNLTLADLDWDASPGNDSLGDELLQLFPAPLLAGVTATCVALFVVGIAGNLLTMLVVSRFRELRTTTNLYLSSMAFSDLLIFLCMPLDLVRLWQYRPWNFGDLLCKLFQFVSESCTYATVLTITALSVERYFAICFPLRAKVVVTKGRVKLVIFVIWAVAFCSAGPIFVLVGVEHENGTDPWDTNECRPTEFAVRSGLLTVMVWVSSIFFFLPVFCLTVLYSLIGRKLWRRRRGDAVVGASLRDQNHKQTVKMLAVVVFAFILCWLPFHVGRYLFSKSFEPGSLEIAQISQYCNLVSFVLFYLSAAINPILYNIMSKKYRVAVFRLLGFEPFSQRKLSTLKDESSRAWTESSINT
Chain of cGMP-inhibited 3',5'-cyclic phosphodiesterase 3A (Q14432 whole entry): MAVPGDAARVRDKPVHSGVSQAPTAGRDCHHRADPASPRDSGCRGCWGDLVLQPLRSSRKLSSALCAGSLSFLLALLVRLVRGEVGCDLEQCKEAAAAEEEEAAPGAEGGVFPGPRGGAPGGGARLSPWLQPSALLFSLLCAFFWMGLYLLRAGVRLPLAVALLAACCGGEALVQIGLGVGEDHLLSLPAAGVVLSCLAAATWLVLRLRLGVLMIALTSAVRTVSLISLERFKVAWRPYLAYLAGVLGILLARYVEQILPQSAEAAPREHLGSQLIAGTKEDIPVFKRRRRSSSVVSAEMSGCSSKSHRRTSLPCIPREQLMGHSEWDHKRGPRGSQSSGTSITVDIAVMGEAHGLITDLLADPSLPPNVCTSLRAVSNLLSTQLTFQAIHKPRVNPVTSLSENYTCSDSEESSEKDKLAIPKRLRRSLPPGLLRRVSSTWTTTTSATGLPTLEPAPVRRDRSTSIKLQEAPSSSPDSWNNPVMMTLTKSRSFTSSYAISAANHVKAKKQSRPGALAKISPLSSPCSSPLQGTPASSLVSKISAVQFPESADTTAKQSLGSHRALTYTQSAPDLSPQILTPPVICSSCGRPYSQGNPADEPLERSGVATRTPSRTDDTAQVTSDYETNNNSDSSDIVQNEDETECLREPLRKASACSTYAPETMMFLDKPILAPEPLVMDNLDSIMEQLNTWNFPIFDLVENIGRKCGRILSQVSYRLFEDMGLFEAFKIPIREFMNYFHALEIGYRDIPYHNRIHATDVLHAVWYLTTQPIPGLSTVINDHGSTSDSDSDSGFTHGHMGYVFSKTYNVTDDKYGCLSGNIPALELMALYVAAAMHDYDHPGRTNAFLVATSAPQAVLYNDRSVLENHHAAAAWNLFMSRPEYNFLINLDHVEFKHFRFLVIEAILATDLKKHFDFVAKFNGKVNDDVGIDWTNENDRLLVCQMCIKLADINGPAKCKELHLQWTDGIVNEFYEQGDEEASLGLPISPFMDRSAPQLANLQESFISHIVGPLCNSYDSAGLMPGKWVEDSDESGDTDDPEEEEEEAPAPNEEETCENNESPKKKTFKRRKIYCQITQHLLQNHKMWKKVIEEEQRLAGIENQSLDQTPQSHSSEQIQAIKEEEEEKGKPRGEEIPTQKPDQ
Chain of Neuronal acetylcholine receptor subunit alpha-4 (P43681 whole entry): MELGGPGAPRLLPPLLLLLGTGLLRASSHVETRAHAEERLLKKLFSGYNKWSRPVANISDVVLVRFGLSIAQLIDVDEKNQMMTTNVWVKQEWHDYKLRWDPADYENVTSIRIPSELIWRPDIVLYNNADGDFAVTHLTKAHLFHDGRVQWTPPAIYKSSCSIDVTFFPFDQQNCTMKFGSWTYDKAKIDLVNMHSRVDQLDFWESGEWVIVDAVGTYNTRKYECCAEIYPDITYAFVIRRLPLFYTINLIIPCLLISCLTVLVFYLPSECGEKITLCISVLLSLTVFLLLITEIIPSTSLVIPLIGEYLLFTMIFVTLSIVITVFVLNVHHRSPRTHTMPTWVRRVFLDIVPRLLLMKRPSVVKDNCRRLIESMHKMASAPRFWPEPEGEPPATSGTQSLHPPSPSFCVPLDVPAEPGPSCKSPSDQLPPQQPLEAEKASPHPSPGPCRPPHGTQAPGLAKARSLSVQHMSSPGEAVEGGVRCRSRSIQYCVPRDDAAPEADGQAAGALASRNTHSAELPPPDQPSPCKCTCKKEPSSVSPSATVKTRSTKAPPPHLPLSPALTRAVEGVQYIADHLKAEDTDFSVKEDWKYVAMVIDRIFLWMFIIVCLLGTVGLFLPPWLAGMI
Chain of Vasopressin V1a receptor (P37288 whole entry): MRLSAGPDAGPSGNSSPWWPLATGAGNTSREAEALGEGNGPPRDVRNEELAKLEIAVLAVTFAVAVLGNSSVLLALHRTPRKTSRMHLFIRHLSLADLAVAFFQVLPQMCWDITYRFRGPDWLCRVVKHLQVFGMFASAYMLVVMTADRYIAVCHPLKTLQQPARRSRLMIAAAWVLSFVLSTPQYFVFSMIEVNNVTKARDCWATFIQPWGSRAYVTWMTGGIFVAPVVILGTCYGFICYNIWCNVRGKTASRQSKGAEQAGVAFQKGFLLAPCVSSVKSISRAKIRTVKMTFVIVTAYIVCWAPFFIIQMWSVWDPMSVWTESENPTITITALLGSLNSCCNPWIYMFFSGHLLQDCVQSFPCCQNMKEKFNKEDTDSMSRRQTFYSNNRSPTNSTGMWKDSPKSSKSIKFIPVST
Chain of Melanocortin receptor 4 (P32245 whole entry): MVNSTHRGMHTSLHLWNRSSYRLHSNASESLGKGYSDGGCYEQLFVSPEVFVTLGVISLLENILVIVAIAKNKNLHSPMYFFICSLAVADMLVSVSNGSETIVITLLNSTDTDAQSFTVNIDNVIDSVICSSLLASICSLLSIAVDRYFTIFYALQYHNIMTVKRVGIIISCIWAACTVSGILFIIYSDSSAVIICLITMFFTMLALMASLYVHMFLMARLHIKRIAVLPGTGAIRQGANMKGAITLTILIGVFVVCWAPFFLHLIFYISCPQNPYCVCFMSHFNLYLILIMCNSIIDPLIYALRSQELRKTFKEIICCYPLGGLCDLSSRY
Chain of D(3) dopamine receptor (P35462 whole entry): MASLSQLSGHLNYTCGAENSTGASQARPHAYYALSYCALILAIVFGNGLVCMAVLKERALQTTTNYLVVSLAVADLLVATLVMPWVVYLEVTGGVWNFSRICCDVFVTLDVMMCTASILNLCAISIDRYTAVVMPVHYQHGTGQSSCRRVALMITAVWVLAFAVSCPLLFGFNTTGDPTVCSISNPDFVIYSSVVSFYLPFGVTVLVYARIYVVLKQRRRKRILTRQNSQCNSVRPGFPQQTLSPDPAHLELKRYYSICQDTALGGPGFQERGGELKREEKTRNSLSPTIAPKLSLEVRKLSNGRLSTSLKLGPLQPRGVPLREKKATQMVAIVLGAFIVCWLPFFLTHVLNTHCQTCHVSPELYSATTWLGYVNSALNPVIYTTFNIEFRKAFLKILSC

On to `COc1ccc(CC2c3cc(OC)c(OC)cc3CC[N+]2(C)CCC(=O)OCCCCCOC(=O)CC[N+]2(C)CCc3cc(OC)c(OC)cc3C2Cc2ccc(OC)c(OC)c2)cc1OC` (stereo unspecified), for which the AC50 was above 30 µM in test [1]; above 30 µM at Vasopressin V1a receptor; 3.63 µM in test [2]; above 30 µM on D(1A) dopamine receptor; 11.2 µM in [3]; above 30 µM on Melanocortin receptor 4. For the same molecule, the AC50 (in test [4] (read-out: AC50); in test [5]; in test [6]; in test [7]; on D(3) dopamine receptor) was above 30 µM in each case.
As to `CC(C(=O)O)c1ccc2c(c1)[nH]c1ccc(Cl)cc12` (stereo unspecified) [CARPROFEN], the AC50 in [1] is above 30 µM; at Vasopressin V1a receptor, above 30 µM; in [2], above 30 µM; at D(1A) dopamine receptor, above 10 µM; in test [3], above 30 µM; at Melanocortin receptor 4 it was above 10 µM. Besides, the AC50 in [4] (read-out: AC50) was above 10 µM; in test [5] it was above 30 µM; in [6] it was above 10 µM; in test [7], above 30 µM; at D(3) dopamine receptor, above 30 µM.
With `COc1ccccc1OCCNCC(O)COc1cccc2[nH]c3ccccc3c12` (stereo unspecified) [CARVEDILOL], the AC50 in test [1] was 0.255 µM; on Vasopressin V1a receptor, above 30 µM; in [2] it was above 30 µM; on D(1A) dopamine receptor, above 10 µM; in [3], 14.1 µM; on Melanocortin receptor 4 it was 29.9 µM. The AC50 in test [4] (read-out: AC50) was 25.3 µM; in test [5] it was above 30 µM; in test [6] it was above 10 µM; in test [7], above 30 µM; at D(3) dopamine receptor it was 0.47 µM.
Consider `O=C1CN(/N=C/c2ccc(-c3ccc([N+](=O)[O-])cc3)o2)C(O)=N1` [DANTROLENE], for which the AC50 (in [1]; at Vasopressin V1a receptor; in [2]; at D(1A) dopamine receptor; in [3]; at Melanocortin receptor 4) was above 10 µM throughout. Moreover, the AC50 in [4] (read-out: AC50) is above 10 µM; in test [5] it was above 10 µM; in [6], above 10 µM; in [7], above 30 µM; at D(3) dopamine receptor it was above 30 µM.
Take `CN(C)CC[C@@H](c1ccc(Cl)cc1)c1ccccn1` [DEXCHLORPHENIRAMINE]: the AC50 (in [1]; at Vasopressin V1a receptor; in [2]; on D(1A) dopamine receptor; in [3]; in test [4] (read-out: AC50)) was above 30 µM in each case. In addition, the AC50 in test [5] was above 30 µM; in [6], above 30 µM; in [7] it was above 10 µM; on D(3) dopamine receptor, above 30 µM.
For the molecule `C[C@]12C=CC(=O)N[C@@H]1CC[C@@H]1[C@@H]2CC[C@]2(C)[C@@H](C(=O)Nc3cc(C(F)(F)F)ccc3C(F)(F)F)CC[C@@H]12` [DUTASTERIDE], the half-maximal activity concentration (AC50) was above 30 µM in test [1]; above 10 µM on Vasopressin V1a receptor; above 10 µM in test [2]; above 10 µM on D(1A) dopamine receptor; above 10 µM in test [3]; above 10 µM at Melanocortin receptor 4. Further, the AC50 is above 10 µM in [4] (read-out: AC50); above 10 µM in [5]; above 10 µM in [6]; above 30 µM in [7]; above 30 µM at D(3) dopamine receptor.
Regarding `CN1C[C@H](C(=O)N[C@]2(C)O[C@@]3(O)[C@@H]4CCCN4C(=O)[C@H](Cc4ccccc4)N3C2=O)C=C2c3cccc4[nH]cc(c34)C[C@H]21` [ERGOTAMINE], the AC50 was above 30 µM in [1]; above 30 µM at Vasopressin V1a receptor; above 30 µM in test [2]; 0.59 µM on D(1A) dopamine receptor; above 30 µM in [3]; 26 µM in test [5]. Further, the AC50 in test [6] is above 30 µM; in test [7], above 30 µM; at D(3) dopamine receptor, 1.6 µM.
Turning to `CN1C(C(=O)Nc2ccccn2)=C(O)c2ccccc2S1(=O)=O` [PIROXICAM], the AC50 is above 30 µM in [1]; above 10 µM at Vasopressin V1a receptor; above 10 µM in test [2]; above 10 µM on D(1A) dopamine receptor; above 10 µM in [3]; above 10 µM at Melanocortin receptor 4. Moreover, the AC50 in test [4] (read-out: AC50) was above 10 µM; in [6], above 30 µM; in [7] it was above 30 µM; at D(3) dopamine receptor, above 30 µM.
Consider `CO[C@H]1/C=C/O[C@@]2(C)Oc3c(C)c(O)c4c(O)c(c(/C=N/N5CCN(C)CC5)c(O)c4c3C2=O)NC(=O)/C(C)=C\C=C\[C@H](C)[C@H](O)[C@@H](C)[C@@H](O)[C@@H](C)[C@H](OC(C)=O)[C@@H]1C` [RIFAMPIN], for which the AC50 is 19.4 µM in [1]; 26.7 µM at Vasopressin V1a receptor; 22 µM in test [2]; above 30 µM at D(1A) dopamine receptor; above 30 µM in test [3]; above 30 µM at Melanocortin receptor 4. The AC50 was 22.5 µM in test [4] (read-out: AC50); above 30 µM in test [5]; above 30 µM in test [6]; 18.3 µM in test [7]; 11 µM at D(3) dopamine receptor.
For `CC(N)C12CC3CC(CC(C3)C1)C2` (stereo unspecified) [RIMANTADINE], the AC50 (in test [1]; in test [2]; at D(1A) dopamine receptor; in [3]; at Melanocortin receptor 4; in [4] (read-out: AC50)) was above 10 µM throughout. For the same molecule, the AC50 in test [5] was above 10 µM; in [6], above 10 µM; in test [7], above 30 µM; at D(3) dopamine receptor, above 30 µM.
In the case of `CCN(CC)CCNC(=O)c1c(C)[nH]c(/C=C2\C(=O)Nc3ccc(F)cc32)c1C` [SUNITINIB], the AC50 in test [1] is 4.3 µM; on Vasopressin V1a receptor it was above 10 µM; in test [2] it was 7.3 µM; in test [3], 7.2 µM; in [4], 6.9 µM; in test [5] it was above 30 µM. In addition, the AC50 in test [6] is above 30 µM; in [7] it was 18 µM; on D(3) dopamine receptor, 1.94 µM.
On to `COc1cc2nc(N3CCN(C(=O)C4CCCO4)CC3)nc(N)c2cc1OC` (stereo unspecified) [TERAZOSIN], for which the AC50 in test [1] is above 30 µM; on Vasopressin V1a receptor, above 10 µM; in [2] it was above 10 µM; on D(1A) dopamine receptor, above 10 µM; in test [3], above 30 µM; at Melanocortin receptor 4 it was above 30 µM. The AC50 in test [4] (read-out: AC50) was above 30 µM; in test [5] it was above 30 µM; in test [6], above 10 µM; in test [7] it was above 30 µM; on D(3) dopamine receptor, above 30 µM.
For `CC(C)(C)NCC(O)c1cc(O)cc(O)c1` (stereo unspecified) [TERBUTALINE], the AC50 (in [1]; at Vasopressin V1a receptor; in test [2]; in test [3]; in test [4] (read-out: AC50); in test [5]) was above 30 µM throughout.
